Data taken from patent US20150038707A1, “PROCESS FOR MAKING CGRP RECEPTOR ANTAGONISTS” (Merck Sharp & Dohme Corp., priority 2012, published 2015).

System: An. Vestitipennis
Assay: Repellency field studies in experimental huts, Belize (Example 12)
Format: in vivo
Settings: for Reduction (%) vs control hut / Number Collected in Entrance: 2.5 nmole; for Number Collected in Entrance: treated hut
Procedure: Compound 1405 was tested in field studies in Belize at a concentration of 2.5 nmole/cm^2. The field studies involved use of huts that were equipped with entrance and exit traps. The hut design and collection procedures correspond to those disclosed by Suwonkerd et al. in “The Effect of Host Type on Movement Patters of Aedes aegypti (Diptera: Culicidae) into and out of Experimental Huts in Thailand,” J. Vector. Ecol., vol. 31 (2), p. 311-318 (2006) which is incorporated herein by reference for all relevant and consistent purposes. The huts were equipped with entrance and/or exit traps at entry and exit points (e.g., windows and doors). The huts were randomized and designated as control (no treatment) or treated (with some intervention being evaluated). The relative numbers of mosquitoes entering or leaving the treated vs. control huts was determined. An. Vestitipennis, An. Albimanus, An. Punctimacula, An. Crucians and a large number of other culicines were collected in the traps. An. Vestitipennis comprised the majority of what was collected.

CC1(C)C(C=C(Cl)C(F)(F)F)C1C(=O)OCc1ccc(F)c(C(F)(F)F)c1F (centres unmarked) [Compound 1405]
effectiveness as a repellent in field huts (FIGS. 6-9) (2.5 nmole/cm^2, four day study): extremely effective as a repellent | Reduction (%) vs control hut (Day 1): 97% | Number Collected in Entrance (Day 1): 37 | Reduction (%) vs control hut (Day 2): 84% | Number Collected in Entrance (Day 2): 99 | Reduction (%) vs control hut (Day 3): 66% | Number Collected in Entrance (Day 3): 173 | Reduction (%) vs control hut (Day 4): 65% | Number Collected in Entrance (Day 4): 232 | Reduction (%) vs control hut (Total of days 1-4): 82% | Number Collected in Entrance (Total of days 1-4): 541
